Data: article PMC3082566, “PTB Domain-Directed Substrate Targeting in a Tyrosine Kinase from the Unicellular Choanoflagellate Monosiga brevicollis” (PLoS ONE, 2011)

How the values were obtained:
HMTK1 [1] = assay: Phosphorylation of peptide substrates by purified HMTK1 (phosphocellulose paper assay); format: biochemical, Monosiga brevicollis; conditions: 6 minutes at 30°C; for HMTK1 activity toward peptide (comparison of c-Src and Monosiga-derived peptides): 750 µM peptide, 400 nM HMTK1, pH 7.4, phosphocellulose paper assay, Fig. 2A
Method: (§1) HMTK1 was expressed in Spodoptera frugiperda (Sf9) insect cells using the Bac-to-Bac system (Invitrogen). Sf9 cells (800 ml) were infected with HMTK1 baculovirus and harvested after three days. Cells were lysed in a French pressure cell, and His-tagged HMTK1 was purified using nickel-nitrilotriacetic acid resin (Qiagen), as described previously. Peak fractions were pooled and concentrated in an Amicon Ultrafiltration device (molecular weight cutoff: 30,000 daltons). The purified protein was stored in 40% glycerol at −20°C. The isolated PTB domain of HMTK1 was produced as a fusion with glutathione S-transferase (GST). E. coli cells (1 liter) expressing the GST fusion protein were lysed in a French pressure cell, and the GST-PTB protein was purified by chromatography on a glutathione-agarose column (Molecular Probes).
Kinase assays were performed by two methods. Initial activity measurements were performed by the phosphocellulose paper binding assay. Reaction mixtures contained 20 mM Tris-HCl (pH 7.4), 10 mM MgCl2, 0.2 mM ATP, [γ-^32P]-ATP (30–50 cpm/pmol), and varying amounts of HMTK1 and peptide substrates. All peptide substrates were purified by high pressure liquid chromatography and characterized by mass spectrometry prior to use. […] Initial rate kinetic measurements on the PTB ligand-containing substrate ([…]pYATLG) and on the Phe-containing PTB control ([…]) were carried out using a continuous spectrophotometric assay. Reactions were performed at 30°C in a final volume of 50 µl. The reactions contained 100 mM Tris pH 7.4, 10 mM MgCl2, 2 mM ATP, 1.5 mM phosphoenolpyruvate, 90 units/ml of pyruvate kinase, 109 units/ml of lactate dehydrogenase, and 1.2 mg/ml of NADH. For determination of Km values, the enzyme concentrations were 0.3–0.5 µM and the peptide concentrations ranged from 0–700 µM. Kinetic constants were determined by nonlinear fitting to the [substrate] vs. velocity curves using GraphPad Prism 4.
Figure 1 Monosiga brevicollis HMTK1 kinase. (A) Domain arrangement of HMTK1. (B) Amino acid sequence of the PTB-kinase HMTK1 construct used in this study. The HMD motif in the catalytic loop is underlined. (C) Tyrosine kinase activity of HMTK1. […] Reactions proceeded for 6 minutes at 30°C, and enzyme activity was measured using the phosphocellulose paper assay.
Figure 2 Additional HMTK1 peptide phosphorylation assays. Reactions proceeded for 6 minutes at 30°C, and enzyme activity was measured using the phosphocellulose paper assay. […] (B) Phosphorylation of SH2-binding substrates containing various spacer lengths between the pY residue and the phosphorylatable tyrosine. The peptides are shown schematically, with the phosphorylation site in blue, the SH2-binding ligand (pYEEI) in red, and the number of intervening amino acids in a box. The sequences of the peptides are: […]pYEEIG (spacer = 11), […]pYEEIG (spacer = 7), and […]pYEEIG (spacer = 3); SH2 control substrate, […] (spacer = 11); substrate peptide, […]. Reactions contained 70 µM peptides. Error bars show standard deviation.

MbSrc1 = conditions: ref [13], [14]; cited from earlier work
MbSrc4 = conditions: ref [13], [14]; cited from earlier work
HMTK1 [2] = assay: Co-expression of HMTK1 with mammalian receptor tyrosine kinases: binding or phosphorylation; format: cell-based, Monosiga brevicollis; conditions: data not shown
[3] = target: SH2 binding substrate, spacer = 11 (…pYEEIG)
[4] = target: Phe-containing PTB control substrate (…)
[5] = target: PTB ligand-containing substrate (…pYATLG)
HMTK1 [6] = assay: Steady-state kinetics, continuous spectrophotometric assay; format: biochemical, Monosiga brevicollis; conditions: HMTK1 0.3–0.5 µM; peptide 0–700 µM; 100 mM Tris pH 7.4, 10 mM MgCl2, 2 mM ATP; 30°C; nonlinear fitting
Method: Kinase assays were performed by two methods. Initial activity measurements were performed by the phosphocellulose paper binding assay. Reaction mixtures contained 20 mM Tris-HCl (pH 7.4), 10 mM MgCl2, 0.2 mM ATP, [γ-^32P]-ATP (30–50 cpm/pmol), and varying amounts of HMTK1 and peptide substrates. All peptide substrates were purified by high pressure liquid chromatography and characterized by mass spectrometry prior to use. The following substrates were used: c-Src peptide, […]; MbSTAT peptide, […]; RTKB2 peptide 1, […]; RTKB2 peptide 2, […]; SH2 binding substrates (varying linker lengths), […]pYEEIG, […]pYEEIG, and […]pYEEIG; SH2 control substrate, […]. Initial rate kinetic measurements on the PTB ligand-containing substrate ([…]pYATLG) and on the Phe-containing PTB control ([…]) were carried out using a continuous spectrophotometric assay. Reactions were performed at 30°C in a final volume of 50 µl. The reactions contained 100 mM Tris pH 7.4, 10 mM MgCl2, 2 mM ATP, 1.5 mM phosphoenolpyruvate, 90 units/ml of pyruvate kinase, 109 units/ml of lactate dehydrogenase, and 1.2 mg/ml of NADH. For determination of Km values, the enzyme concentrations were 0.3–0.5 µM and the peptide concentrations ranged from 0–700 µM. Kinetic constants were determined by nonlinear fitting to the [substrate] vs. velocity curves using GraphPad Prism 4.

HMTK1 [7] = assay: Binding of purified HMTK1 to immobilized PTB ligand peptides; design: species or system Monosiga brevicollis; conditions: 6.6 µg HMTK1; peptide on Affi-Gel resin; 1 hour at 4°C; anti-His6 Western; Fig. 5A
Method: The PTB ligand-containing peptide, Phe-containing PTB control, and pYEEI peptide (EPQpYEEIG) were linked to Affi-Gel 15 resin (Bio-Rad) following the manufacturer's protocols. Purified HMTK1 or the isolated PTB domain were incubated for 1 hour at 4°C with the immobilized peptides. After binding, the beads were washed 4 times with 1 ml of binding buffer (50 mM Tris-HCl pH 7.5, 5 mM EDTA, 100 mM NaCl, 0.1% Triton X-100, 1 mM DTT, 0.5 mM Na3VO4). Bound proteins were eluted with SDS-PAGE loading buffer, separated by 10% SDS-PAGE, and visualized either by Coomassie blue staining or by Western blotting.
Figure 5 Substrate targeting by PTB ligand. (A) Purified HMTK1 (6.6 µg) was incubated with PTB ligand-containing substrate ([…]pYATLG), PTB control substrate ([…]), pYEEI peptide, or control resin in final volumes of 60 µl. After washing, bound proteins were eluted with SDS-PAGE sample buffer and analyzed by Western blotting with anti-His6-tag antibody. (B) The kinase activity of HMTK1 (300 nM) toward the PTB ligand-containing substrate or PTB control substrate (shown schematically) was determined using the phosphocellulose paper assay. The reaction contained 20 mM Tris-HCl (pH 7.4), 10 mM MgCl2, 0.2 mM ATP, 30 µM peptide, and [γ-^32P]-ATP. […] Incorporation of ^32P into the peptides was determined by scintillation counting.

[8] = test system: FLAG-tagged wild-type HMTK1; assay: Pulldown of FLAG-tagged wild-type HMTK1 from SYF cell lysates with immobilized peptides; format: binding, Monosiga brevicollis; conditions: immobilized peptide; anti-FLAG Western; Fig. 3C
Method: For expression in insect cells, HMTK1 DNA (encoding residues 341–761) was cloned into the EcoRI site of pFastbac-Hta (Invitrogen). FLAG-tagged HMTK1 was expressed in mammalian cells by subcloning into the BglII and BamHI sites of p3XFLAG-CMV (Sigma). The ΔPTB version of this construct was prepared by PCR amplification and subsequent recloning into the BamHI and EcoRI sites of p3XFLAG-CMV. Site-directed mutagenesis of FLAG-HMTK1 was carried out using the QuikChange kit (Stratagene). To express the isolated third PTB domain (residues 341–474) in bacterial cells, this PCR fragment was cloned into the EcoRI site of plasmid pGEX-4T-1 (GE Healthcare). All constructs were confirmed by DNA sequencing.
The PTB ligand-containing peptide, Phe-containing PTB control, and pYEEI peptide (EPQpYEEIG) were linked to Affi-Gel 15 resin (Bio-Rad) following the manufacturer's protocols. Purified HMTK1 or the isolated PTB domain were incubated for 1 hour at 4°C with the immobilized peptides. […]
Figure 3 Binding reactions with pYEEI-containing peptide. […] Bound proteins were eluted with SDS-PAGE sample buffer and analyzed by gel electrophoresis with Coomassie blue staining. […] After washing, bound proteins were eluted with SDS-PAGE sample buffer and analyzed by Western blotting with anti-GST antibody. […] After washing, bound proteins were analyzed by anti-FLAG Western blotting. […]

HMTK1 [9] = assay: Phosphorylation of SH2-binding substrates with varying spacer lengths by HMTK1 (phosphocellulose paper assay); format: biochemical, Monosiga brevicollis; conditions: 70 µM peptides; spacer of 11 residues; 6 minutes at 30°C; Fig. 2B
Method: as §1
Kinase assays were performed by two methods. Initial activity measurements were performed by the phosphocellulose paper binding assay. […] Kinetic constants were determined by nonlinear fitting to the [substrate] vs. velocity curves using GraphPad Prism 4.
Figure 2 Additional HMTK1 peptide phosphorylation assays. Reactions proceeded for 6 minutes at 30°C, and enzyme activity was measured using the phosphocellulose paper assay. […]

Sequence of SH2 binding substrate, spacer = 11 (…pYEEIG) (peptide, as listed by the source): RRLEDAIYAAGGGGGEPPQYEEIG
Sequence of PTB ligand-containing substrate (…pYATLG) (peptide, as listed by the source): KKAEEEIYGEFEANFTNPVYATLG

AEEEIYGEFEAKKKG [c-Src peptide, acidophilic Src peptide, reference compound]
HMTK1 activity toward peptide (comparison of c-Src and Monosiga-derived peptides) (HMTK1 [1]): roughly equivalent activity | phosphorylation of peptide by HMTK1 (HMTK1 [1]; 32P-labeled ATP, 500 µM peptide, 20 mM Tris-HCl pH 7.4, 10 mM MgCl2, 0.2 mM ATP, Fig. 1C): phosphorylated this peptide efficiently

AEEVYEAIADKKK [RTKB2 peptide 2]
MbSrc1 activity compared with the c-Src peptide (MbSrc1): substantially higher activities | MbSrc4 activity compared with the c-Src peptide (MbSrc4): substantially higher activities | HMTK1 activity toward peptide (comparison of c-Src and Monosiga-derived peptides) (HMTK1 [1]): highest activity

ErbB2: mammalian receptor tyrosine kinase
binding or phosphorylation by co-expressed HMTK1 (HMTK1 [2]): failed to bind or phosphorylate

His-tagged HMTK1 PTB-kinase construct (residues 341-761) (enzyme)
other [3]: 5 fold | Km of peptide phosphorylation by HMTK1 (continuous spectrophotometric assay, 30°C) [4]: 450 µM | Km of peptide phosphorylation by HMTK1 (continuous spectrophotometric assay, 30°C) [5]: 33 µM

IGF1R: mammalian receptor tyrosine kinase
binding or phosphorylation by co-expressed HMTK1 (HMTK1 [2]): failed to bind or phosphorylate

KKAEEEIYGEFEANFTNPVFATLG [Phe peptide, control peptide in which the pTyr residue was replaced with Phe]
Km (HMTK1 [6]): 450 µM | binding to purified HMTK1 (HMTK1 [7]): undetectable

KKKASGYVMADIA [MbSTAT peptide, from a putative M. brevicollis STAT]
HMTK1 activity toward peptide (comparison of c-Src and Monosiga-derived peptides) (HMTK1 [1]): no significant activity

LRRApSLG [phospho-Kemptide, immobilized phosphoserine-containing peptide]
binding to wild-type HMTK1 (SYF lysate) [8]: failed to bind

RRLEDAIYAAGGGGGEPPQpYEEIG [SH2-binding substrate]
phosphorylation relative to control sequence lacking phosphotyrosine (HMTK1 [9]): 5 fold | phosphorylation relative to shortened peptide containing only the substrate motif (HMTK1 [9]): 5 fold

SEEVYGAVVDKKK [RTKB2 peptide 1]
MbSrc1 activity compared with the c-Src peptide (MbSrc1): substantially higher activities | MbSrc4 activity compared with the c-Src peptide (MbSrc4): substantially higher activities | HMTK1 activity toward peptide (comparison of c-Src and Monosiga-derived peptides) (HMTK1 [1]): roughly equivalent activity
